Laboratory results taken from the supplement of paper PMC9663587.

What was measured:
Test in all cases: area over the GR curve, 72 h; higher = more effect;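 further: Dye Drop or Deep Dye Drop imaging of viable cells in 384-well plates (Hoechst nuclei, LIVE/DEAD dye), nine half-log doses, GR normalized to DMSO controls and time-zero plates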
MDAMB361 = tested on: MDAMB361
ZR751 = tested on: ZR751
SUM185PE = tested on: SUM185PE
AU565 = tested on: AU565
MCF10A = tested on: MCF10A
MDAMB175VII = tested on: MDAMB175VII
CAL51 = tested on: CAL51
CAL851 = tested on: CAL851
BT474 = tested on: BT474
UACC893 = tested on: UACC893
EVSAT = tested on: EVSAT
SUM44PE = tested on: SUM44PE
MGH312 = tested on: MGH312
MCF12A = tested on: MCF12A
MDAMB231 = tested on: MDAMB231

SMILES	area over the GR curve (MDAMB361)	area over the GR curve (ZR751)	area over the GR curve (SUM185PE)	area over the GR curve (AU565)	area over the GR curve (MCF10A)	area over the GR curve (MDAMB175VII)	area over the GR curve (CAL51)	area over the GR curve (CAL851)	area over the GR curve (BT474)	area over the GR curve (UACC893)	area over the GR curve (EVSAT)	area over the GR curve (SUM44PE)	area over the GR curve (MGH312)	area over the GR curve (MCF12A)	area over the GR curve (MDAMB231)
O=C1NC(=NCc2cccs2)SC1=Cc1ccc2ncccc2c1 [R0-3306] (max 10 µM)	0.0965 GR	0.0473 GR	0.0686 GR	0.406 GR	0.115 GR	0.239 GR	0.067 GR	0.159 GR	0.22 GR	0.0158 GR	0.115 GR	0.276 GR	0.0994 GR	0.041 GR	0.0059 GR
CNCc1ccc(-c2[nH]c3cc(F)cc4c3c2CCNC4=O)cc1 [Rucaparib] (max 10 µM)	0.336 GR	0.0837 GR	0.108 GR	0.0692 GR	0.0413 GR	0.136 GR	0.0888 GR	0.203 GR	0.122 GR	0.164 GR	0.0455 GR	0.0038 GR	0.189 GR	0.0783 GR	0.0793 GR
CC1(N)CCN(c2cnc(-c3cccc(Cl)c3Cl)c(N)n2)CC1 [SHP099] (max 10 µM)	0.13 GR	0.0364 GR	0.176 GR	0.0263 GR	0.081 GR	0.238 GR	0.03 GR	0.137 GR	-0.022 GR	-0.0199 GR	-0.0008 GR	0.075 GR	-0.0302 GR	0.0144 GR	-0.0083 GR
CN1CCN(CCOc2cc(OC3CCOCC3)c3c(Nc4c(Cl)ccc5c4OCO5)ncnc3c2)CC1 [Saracatinib/AZD0530] (max 10 µM)	0.406 GR	0.163 GR	0.279 GR	0.119 GR	0.125 GR	0.762 GR	0.227 GR	0.184 GR	0.303 GR	0.11 GR	0.203 GR	0.112 GR	0.537 GR	0.0317 GR	0.269 GR
Cc1cc(C(C)Nc2ccccc2)c2nc(N3CCOCC3)cc(=O)n2c1 (stereo not given) [TGX221] (max 10 µM)	-0.0911 GR	0.354 GR	0.163 GR	0.103 GR	0.005 GR	-0.0733 GR	-0.0117 GR	-0.0591 GR	-0.0718 GR	-0.111 GR	0.254 GR	-0.155 GR	0.472 GR	-0.0153 GR	0.0141 GR
CN(C)C/C=C/C(=O)Nc1ccc(C(=O)Nc2cccc(Nc3ncc(Cl)c(-c4c[nH]c5ccccc45)n3)c2)cc1 [THZ1] (max 1 µM)	0.746 GR	0.162 GR	0.484 GR	0.607 GR	0.36 GR	0.487 GR	0.161 GR	0.639 GR	0.686 GR	0.542 GR	0.251 GR	0.706 GR	0.97 GR	0.256 GR	0.356 GR
CN(C)C/C=C/C(=O)Nc1ccc(C(=O)N2CCC[C@@H](Nc3ncc(Cl)c(-c4c[nH]c5ccccc45)n3)C2)cc1 [THZ531] (max 1 µM)	0.682 GR	0.124 GR	0.231 GR	0.42 GR	0.162 GR	0.567 GR	0.0896 GR	0.36 GR	0.572 GR	0.437 GR	0.0912 GR	0.177 GR	0.636 GR	0.0965 GR	0.205 GR
CN(C)C/C=C/C(=O)Nc1ccc(C(=O)Nc2cccc(Nc3cc(-c4c[nH]c5ccccc45)ncn3)c2)cc1 [THZ-P1-2] (max 10 µM)	0.789 GR	0.0386 GR	0.14 GR	0.194 GR	0.13 GR	0.458 GR	0.0155 GR	0.217 GR	-0.079 GR	0.573 GR	0.127 GR	0.619 GR	0.127 GR	0.0465 GR	0.163 GR
Cc1nc(-c2cn3c(n2)-c2ccc(-c4cnn(C(C)(C)C(N)=O)c4)cc2OCC3)n(C(C)C)n1 [Taselisib/GDC0032] (max 10 µM)	1.41 GR	0.393 GR	0.879 GR	0.97 GR	0.484 GR	1.32 GR	0.546 GR	0.55 GR	1.43 GR	1.43 GR	0.412 GR	1.02 GR	0.886 GR	0.263 GR	0.254 GR
O=C1NC(=O)[C@@H](c2cn3c4c(cccc24)CCC3)[C@@H]1c1c[nH]c2ccccc12 [Tivantinib/ARQ197] (max 10 µM)	0.514 GR	0.255 GR	0.239 GR	0.577 GR	0.451 GR	0.531 GR	0.359 GR	0.518 GR	0.309 GR	0.405 GR	0.443 GR	0.762 GR	0.396 GR	0.374 GR	0.323 GR
Nc1ccc(-c2ccc3ncc4ccc(=O)n(-c5cccc(C(F)(F)F)c5)c4c3c2)cn1 [Torin2] (max 1 µM)	0.869 GR	0.438 GR	0.473 GR	0.657 GR	0.337 GR	1.04 GR	0.456 GR	0.54 GR	0.604 GR	0.698 GR	0.511 GR	0.737 GR	0.816 GR	0.327 GR	0.386 GR
CC[C@@H]1C(=O)N(C)c2cnc(Nc3ccc(C(=O)N[C@H]4CC[C@H](N5CCN(CC6CC6)CC5)CC4)cc3OC)nc2N1C(C)C [Volasertib/BI6727] (max 1 µM)	0.793 GR	0.263 GR	0.286 GR	0.855 GR	0.447 GR	0.449 GR	0.679 GR	0.717 GR	0.636 GR	0.813 GR	0.666 GR	0.623 GR	0.801 GR	0.321 GR	0.584 GR
O=C(CCCCCCC(=O)Nc1ccccc1)NO [Vorinostat] (max 10 µM)	0.457 GR	0.0343 GR	0.0835 GR	0.327 GR	0.168 GR	0.445 GR	0.186 GR	0.201 GR	0.136 GR	0.161 GR	0.19 GR	0.181 GR	0.37 GR	0.0874 GR	0.282 GR
C=CC(=O)Nc1ccc(C(=O)Nc2[nH]nc3c2CN(C(=O)N[C@H](CN(C)C)c2ccccc2)C3(C)C)cc1 [YKL-5-124] (max 10 µM)	1.14 GR	0.717 GR	0.518 GR	1 GR	0.921 GR	0.989 GR	0.655 GR	1.2 GR	0.944 GR	0.765 GR	0.911 GR	1.16 GR	0.923 GR	0.803 GR	0.878 GR
